Measurements: article PMC12630027, “RALGEF inhibitors suppress RAS-driven pancreatic cancer and metastasis” (The Journal of Biological Chemistry, 2025)

How the values were obtained:
[1] = target: T1, isolated RA domain of RALGDS; experiment: microscale thermophoresis, one-site model; conditions: 50 nM fluorescently labelled RALGDS RA domain, 5% DMSO; average of four experiments; compound solubility may have compromised the assay; read-out: binding affinity
T1 construct: isolated RAS association (RA) domain, C-terminal; fluorescently labelled
From the text: microscale thermophoresis, one-site model on isolated RA domain of RALGDS | obtained binding affinities in the low μM range

[2] = target: T2, full-length RALGDS recombinant protein (Homo sapiens, UniProt Q12967); experiment: analytical ultracentrifugation; format: binding
T2 construct: full length, purified recombinant, purchased from Genscript Biotech
T2 sequence (Q12967 1-914): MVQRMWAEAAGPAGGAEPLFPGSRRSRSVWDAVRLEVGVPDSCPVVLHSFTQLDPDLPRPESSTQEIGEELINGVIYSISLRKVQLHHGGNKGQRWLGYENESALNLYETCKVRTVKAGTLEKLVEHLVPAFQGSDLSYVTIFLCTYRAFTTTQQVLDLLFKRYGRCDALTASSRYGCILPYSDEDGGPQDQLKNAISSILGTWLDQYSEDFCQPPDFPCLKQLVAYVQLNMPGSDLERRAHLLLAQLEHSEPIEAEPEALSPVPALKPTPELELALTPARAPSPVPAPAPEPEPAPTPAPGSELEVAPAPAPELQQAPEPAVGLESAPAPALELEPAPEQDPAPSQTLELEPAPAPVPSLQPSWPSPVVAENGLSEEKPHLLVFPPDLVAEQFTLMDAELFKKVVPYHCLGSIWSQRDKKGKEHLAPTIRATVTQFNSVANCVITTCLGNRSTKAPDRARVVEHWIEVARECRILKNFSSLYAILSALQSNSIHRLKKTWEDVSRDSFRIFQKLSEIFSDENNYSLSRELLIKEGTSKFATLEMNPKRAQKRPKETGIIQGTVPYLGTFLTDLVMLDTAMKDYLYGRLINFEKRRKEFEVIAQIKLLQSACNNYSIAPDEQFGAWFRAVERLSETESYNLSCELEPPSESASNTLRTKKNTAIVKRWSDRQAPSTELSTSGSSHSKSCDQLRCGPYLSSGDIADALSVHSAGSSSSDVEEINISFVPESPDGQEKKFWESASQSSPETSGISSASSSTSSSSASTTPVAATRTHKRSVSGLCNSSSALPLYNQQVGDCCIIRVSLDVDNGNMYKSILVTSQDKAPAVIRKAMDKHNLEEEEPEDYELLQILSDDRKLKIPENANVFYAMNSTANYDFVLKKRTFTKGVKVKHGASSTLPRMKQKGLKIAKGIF

RGL2 (also known as Rlf) = target: T3, RGL2 (also known as Rlf) (Homo sapiens, UniProt O15211); experiment: co-immunoprecipitation of H-RAS12V from mixed HEK-293 lysates, Western blot; format: biochemical; conditions: 20 μM (figure legend; 10 μM in methods), HA-H-RAS12V partner, pH 7.5, room temperature; inhibition of RAS/RALGEF complex
T3 construct: full length, GFP-tagged, plasmid gift of CJ Der, expressed in HEK-293, lysate

RGL3 = target: T4, RGL3 (Homo sapiens, UniProt Q3MIN7); experiment: as above; format: biochemical; conditions: 20 μM (figure legend; 10 μM in methods), HA-H-RAS12V partner, pH 7.5, room temperature; inhibition of RAS/RALGEF complex
T4 construct: Flag-tagged, construct purchased from Genscript, expressed in HEK-293, lysate

GFP-tagged RALGDS = target: T5, GFP-tagged RALGDS (Homo sapiens, UniProt Q12967); experiment: as above; format: biochemical; conditions: 20 μM (figure legend; 10 μM in methods), HA-H-RAS12V partner, pH 7.5, room temperature; inhibition of RAS/RALGEF complex
T5 construct: full length, GFP-tagged, plasmid gift of CJ Der, expressed in HEK-293, lysate

Compound | Kd [1] [µM] | Kd [2] [µM] | co-immunoprecipitation of H-RAS12V from mixed HEK-293 lysates, Western blot (RGL2 (also known as Rlf)) | co-immunoprecipitation of H-RAS12V from mixed HEK-293 lysates, Western blot (RGL3) | co-immunoprecipitation of H-RAS12V from mixed HEK-293 lysates, Western blot (GFP-tagged RALGDS)
COc1cccc(CNc2nc(CNCc3cccc(F)c3)nc3sc(C)c(C)c23)c1 [C4-180] | 2.55 | ~1 | C4-180 was noticably better at suppressing the interaction of RAS with RALGDS and RGL2 | C4-180 could act on RALGDS, RGL2 and RGL3 family members | C4-180 was noticably better at suppressing the interaction of RAS with RALGDS and RGL2
COc1cccc(CNc2nc(CN(C)Cc3cccc(OC)c3)nc3sc(C)c(C)c23)c1 [C4] | – | – | The complex formation was suppressed. | – | The complex formation was suppressed.
